Biological target: T1, zPIP5K (zebrafish PIP5K1A, zPIP5K1Aα) (Danio rerio, UniProt Q503I3)
T1 construct: gene pip5k1aa; kinase domain aa 49-431, His-tagged (pET21b+), E. coli
Experiment: real-time liposome assay with NBD-PHPLCδ PI([…])P2 sensor
Type: biochemical
Settings: ATP 80 uM, 2 mM MgCl2, pH 7.5; liposomes without PS or sterol; allosteric sigmoidal fit

T1 sequence (Q503I3 49-431): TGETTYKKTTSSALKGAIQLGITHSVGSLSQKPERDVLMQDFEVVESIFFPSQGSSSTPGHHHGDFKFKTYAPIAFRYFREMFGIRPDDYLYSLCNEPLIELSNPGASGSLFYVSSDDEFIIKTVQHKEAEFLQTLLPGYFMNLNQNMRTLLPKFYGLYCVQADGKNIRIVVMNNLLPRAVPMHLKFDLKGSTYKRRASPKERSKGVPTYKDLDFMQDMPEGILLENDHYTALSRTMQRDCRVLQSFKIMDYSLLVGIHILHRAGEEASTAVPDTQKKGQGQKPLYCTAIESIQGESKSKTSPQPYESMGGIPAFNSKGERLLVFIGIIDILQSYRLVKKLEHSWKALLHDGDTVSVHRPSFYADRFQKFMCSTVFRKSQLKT

- apparent Km: 6.2 mol%
Substance: L-α-phosphatidylinositol-4-phosphate [bPI4P]

Source: PMC6739424, “Osh Proteins Control Nanoscale Lipid Organization Necessary for PI(4,5)P2 Synthesis” (Molecular Cell, 2019)
